In the experiment the test system is Escherichia coli strain ATCC25922. Briefly: standard microdilution assay to determine minimum inhibitory concentrations (MICs). It is filed as cell-based. The following applies: for MIC: Escherichia coli, ATCC25922, Escherichia coli strain ATCC25922, microdilution, read-out: E. coli ATCC25922 MIC; for E. coli ATCC25922 MIC: Escherichia coli strain ATCC25922, microdilution. A digest of the protocol: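 Broth microdilution MIC against E. coli ATCC25922, following CLSI protocols, typically in a 100 microliter final volume. Results reported as +/− relative to a 16 micrograms/ml cutoff.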

Some results are limits rather than exact numbers.

By MIC is commonly meant the lowest concentration found to suppress growth. Take `NCC(Cn1cc2cc(-c3ccc(S(=O)(=O)NC4CCNCC4)cc3)[nH]c2nc1=O)OCc1ccc(F)cc1` (stereo not shown) [Compound 1085]: the MIC was > 16 µg/mL.

Regarding `NCCCOc1cccc(-c2cc3cn(-c4ccc(CN)cc4)c(=O)nc3[nH]2)c1` [Compound 1087], the MIC is > 16 µg/mL.

For `NCc1ccc(-n2cc3cc(-c4ccccc4OCCO)[nH]c3nc2=O)cc1` [Compound 1088], the MIC was > 16 µg/mL. As to `N=C(N)NCCCNCC(Cn1cc2cc(-c3ccc(S(=O)(=O)NC4CCNCC4)cc3)[nH]c2nc1=O)OCc1ccc(F)c(F)c1` (stereo not shown) [Compound 1089], the “E. coli ATCC25922 MIC” value is given as “− (a “−” indicates that the compound has an MIC value greater than 16 micrograms/ml)”. Turning to `N=C(N)NCCCNC(=O)c1ccc(-n2cc3cc(-c4ccc(S(=O)(=O)N(Cc5cc(OC(F)(F)F)ccc5F)C5CCNCC5)cc4)[nH]c3nc2=O)cc1` [Compound 1090], the “E. coli ATCC25922 MIC” value is “+ (a “+” indicates that the compound has an MIC value of 16 micrograms/ml or less)”. For the molecule `COc1ccc(CN(C2CCNCC2)S(=O)(=O)c2ccc(-c3cc4cn(-c5ccc(C(N)=O)cc5)c(=O)nc4[nH]3)cc2)cc1[N+](=O)[O-]` [Compound 1091], the “E. coli ATCC25922 MIC” value is given as “− (a “−” indicates that the compound has an MIC value greater than 16 micrograms/ml)”. As to `NCc1ccc(-n2cc3cc(-c4ccc(S(=O)(=O)N(CCCN5CCCC(O)C5)C5CCNCC5)cc4)[nH]c3nc2=O)cc1` (stereo not shown) [Compound 1092], the “E. coli ATCC25922 MIC” value is listed as “− (a “−” indicates that the compound has an MIC value greater than 16 micrograms/ml)”. Same read-out and setting: the same measure for `N=C(N)NCCCNC(=O)c1ccc(-n2cc3cc(-c4ccc(S(=O)(=O)N(CCOc5ccc(F)cc5)C5CCNCC5)cc4)[nH]c3nc2=O)cc1` [Compound 1093]: “+ (a “+” indicates that the compound has an MIC value of 16 micrograms/ml or less)”. `COCCOCCOc1cccc(-c2cc3cn(-c4ccc(CN)cc4)c(=O)nc3[nH]2)c1` [Compound 1094]: the MIC was > 16 µg/mL. For `N=C(N)NCCCNCC(Cn1cc2cc(-c3ccc(S(=O)(=O)NC4CCNCC4)cc3)[nH]c2nc1=O)OCc1ccc(F)cc1` (stereo not shown) [Compound 1097], the “E. coli ATCC25922 MIC” value is “− (a “−” indicates that the compound has an MIC value greater than 16 micrograms/ml)”.

In the case of `NCc1ccc(-n2cc3cc(-c4cccc(OCCCO)c4)[nH]c3nc2=O)cc1` [Compound 1099], the MIC is > 16 µg/mL. For `NCc1ccc(-n2cc3cc(-c4cccc(OCCO)c4)[nH]c3nc2=O)cc1` [Compound 1100], the MIC is > 16 µg/mL. Same read-out and setting: the same measure for `COCCOCCOc1cccc(-c2cc3cn(-c4ccc(CNCCCNC(=N)N)cc4)c(=O)nc3[nH]2)c1` [Compound 1101]: > 16 µg/mL. On to `N=C(N)NOCCNCc1ccc(-n2cc3cc(-c4ccc(S(=O)(=O)NC5CCNCC5)cc4)[nH]c3nc2=O)cc1` [Compound 1102], for which the “E. coli ATCC25922 MIC” value is listed as “+ (a “+” indicates that the compound has an MIC value of 16 micrograms/ml or less)”. On the same count and under the same terms, the same measure for `N=C(N)NCCCNS(=O)(=O)c1ccc(-n2cc3cc(-c4ccc(S(=O)(=O)NC5CCNCC5)cc4)[nH]c3nc2=O)cc1` [Compound 1103]: “+ (a “+” indicates that the compound has an MIC value of 16 micrograms/ml or less)”; for `N=C(N)NCCNCc1ccc(-n2cc3cc(-c4ccc(S(=O)(=O)NC5CCNCC5)cc4)[nH]c3nc2=O)cc1` [Compound 1104]: “+ (a “+” indicates that the compound has an MIC value of 16 micrograms/ml or less)”. As to `NCc1ccc(-n2cc3cc(-c4ccccc4OCCCO)[nH]c3nc2=O)cc1` [Compound 1105], the MIC is > 16 µg/mL. Turning to `NCCCOc1ccccc1-c1cc2cn(-c3ccc(CN)cc3)c(=O)nc2[nH]1` [Compound 1106], the MIC was > 16 µg/mL. Turning to `NCc1ccc(-n2cc3cc(-c4cccc(OCCCN5CCNCC5)c4)[nH]c3nc2=O)cc1` [Compound 1107], the minimal inhibitory concentration (MIC) was > 16 µg/mL.

In the case of `N=C(N)NCCNCC(O)Cn1cc2cc(-c3ccc(S(=O)(=O)NC4CCNCC4)cc3)[nH]c2nc1=O` (stereo not shown) [Compound 1108], the “E. coli ATCC25922 MIC” value is given as “+ (a “+” indicates that the compound has an MIC value of 16 micrograms/ml or less)”. For `N=C(N)NCCCNCc1ccc(-n2cc3cc(-c4cccc(OCCCO)c4)[nH]c3nc2=O)cc1` [Compound 1110], the MIC was > 16 µg/mL. Consider `CN(C)CCOc1ccccc1-c1cc2cn(-c3ccc(CN)cc3)c(=O)nc2[nH]1` [Compound 1111], for which the MIC is > 16 µg/mL. `C=Cc1cc2cn(-c3ccc(C(=O)NCCCNC(=N)N)cc3)c(=O)nc2[nH]1` [Compound 1112]: the MIC was > 16 µg/mL. On the same count and under the same terms, the same measure for `CN(C)CCCOc1cccc(-c2cc3cn(-c4ccc(CN)cc4)c(=O)nc3[nH]2)c1` [Compound 1113]: > 16 µg/mL. For the molecule `COc1ccc(CN(C2CCNCC2)S(=O)(=O)c2ccc(-c3cc4cn(-c5ccc(C(=O)NCCCNC(=N)N)cc5)c(=O)nc4[nH]3)cc2)cc1[N+](=O)[O-]` [Compound 1114], the “E. coli ATCC25922 MIC” value was “+ (a “+” indicates that the compound has an MIC value of 16 micrograms/ml or less)”. On to `NC(=O)c1ccc(-n2cc3cc(-c4ccc(S(=O)(=O)N(Cc5cc(OC(F)(F)F)ccc5F)C5CCNCC5)cc4)[nH]c3nc2=O)cc1` [Compound 1115], for which the “E. coli ATCC25922 MIC” value was “− (a “−” indicates that the compound has an MIC value greater than 16 micrograms/ml)”.

For the molecule `NC(=O)c1ccc(-n2cc3cc(-c4ccc(S(=O)(=O)N(CCCn5ccc(C(F)(F)F)n5)C5CCNCC5)cc4)[nH]c3nc2=O)cc1` [Compound 1116], the “E. coli ATCC25922 MIC” value is reported as “− (a “−” indicates that the compound has an MIC value greater than 16 micrograms/ml)”.

Turning to `NCc1ccc(-n2cc3cc(-c4ccccc4OCCCN4CCNCC4)[nH]c3nc2=O)cc1` [Compound 1117], the MIC is > 16 µg/mL. Turning to `N=C(N)N[C@@H]1CCCN(Cc2ccc(-n3cc4cc(-c5ccc(S(=O)(=O)NC6CCNCC6)cc5)[nH]c4nc3=O)cc2)C1` [Compound 1119], the “E. coli ATCC25922 MIC” value was “+ (a “+” indicates that the compound has an MIC value of 16 micrograms/ml or less)”. On the same count and under the same terms, next, `N[C@@H]1CCCN(Cc2ccc(-n3cc4cc(-c5ccc(S(=O)(=O)NC6CCNCC6)cc5)[nH]c4nc3=O)cc2)C1` [Compound 1120]: “− (a “−” indicates that the compound has an MIC value greater than 16 micrograms/ml)”. With `CCOCCOc1cccc(-c2cc3cn(-c4ccc(CN)cc4)c(=O)nc3[nH]2)c1` [Compound 1121], the MIC is > 16 µg/mL. As to `N=C(N)NCCCNCc1ccc(-n2cc3cc(-c4ccc(S(=O)(=O)NC5CNC5)cc4)[nH]c3nc2=O)cc1` [Compound 1122], the “E. coli ATCC25922 MIC” value was “+ (a “+” indicates that the compound has an MIC value of 16 micrograms/ml or less)”. For `NCc1ccc(-n2cc3cc(-c4cccc(S(=O)(=O)N(CCOc5ccc(F)cc5)C5CCNCC5)c4)[nH]c3nc2=O)cc1` [Compound 1123], the MIC is > 16 µg/mL.

For `N=C(N)NCCCNC(=O)c1ccc(-n2cc3cc(-c4cccc(S(=O)(=O)N(CCCn5ccc(C(F)(F)F)n5)C5CCNCC5)c4)[nH]c3nc2=O)cc1` [Compound 1124], the “E. coli ATCC25922 MIC” value is listed as “− (a “−” indicates that the compound has an MIC value greater than 16 micrograms/ml)”. As to `Cc1ccn(CCCN(C2CCNCC2)S(=O)(=O)c2cccc(-c3cc4cn(-c5ccc(C(N)=O)cc5)c(=O)nc4[nH]3)c2)n1` [Compound 1126], the MIC is > 16 µg/mL. For `NCc1ccc(-n2cc3cc(-c4cccc(OCCOc5ccc(Cl)cc5)c4)[nH]c3nc2=O)cc1` [Compound 1127], the MIC is > 16 µg/mL. On the same count and under the same terms, the same measure for `NCc1ccc(-n2cc3cc(-c4cccc(OCCCc5ccc(Cl)cc5)c4)[nH]c3nc2=O)cc1` [Compound 1128]: > 16 µg/mL; for `CNCCOc1ccccc1-c1cc2cn(-c3ccc(CN)cc3)c(=O)nc2[nH]1` [Compound 1129]: > 16 µg/mL.

As for `N=C(N)NCCCNCc1ccc(-n2cc3cc(-c4ccc(S(=O)(=O)CCN)cc4)[nH]c3nc2=O)cc1` [Compound 1130], the “E. coli ATCC25922 MIC” value was “+ (a “+” indicates that the compound has an MIC value of 16 micrograms/ml or less)”. Take `CCOCCOc1ccccc1-c1cc2cn(-c3ccc(CN)cc3)c(=O)nc2[nH]1` [Compound 1131]: the MIC is > 16 µg/mL.

On to `Nc1nccc(CCCNCc2ccc(-n3cc4cc(-c5ccc(S(=O)(=O)NC6CCNCC6)cc5)[nH]c4nc3=O)cc2)n1` [Compound 1132], for which the “E. coli ATCC25922 MIC” value is recorded as “− (a “−” indicates that the compound has an MIC value greater than 16 micrograms/ml)”. On to `NOCCNC(=O)c1ccc(-n2cc3cc(-c4ccc(S(=O)(=O)NC5CCNCC5)cc4)[nH]c3nc2=O)cc1` [Compound 1136], for which the MIC is > 16 µg/mL. Consider `N=C(N)NOCCNC(=O)c1ccc(-n2cc3cc(-c4ccc(S(=O)(=O)NC5CCNCC5)cc4)[nH]c3nc2=O)cc1` [Compound 1137], for which the “E. coli ATCC25922 MIC” value is listed as “− (a “−” indicates that the compound has an MIC value greater than 16 micrograms/ml)”.

In the case of `N=C(N)N[C@@H]1CCN(Cc2ccc(-n3cc4cc[nH]c4nc3=O)cc2)C1` [Compound 1140], the MIC was > 16 µg/mL. Consider `O=c1nc2[nH]c(-c3ccc(S(=O)(=O)NC4CCNCC4)cc3)cc2cn1-c1cccc(OCC2CCNCC2)c1` [Compound 1141], for which the MIC is > 16 µg/mL. In the case of `NCc1ccc(-n2cc3cc(-c4cccc(OCCNC(N)=O)c4)[nH]c3nc2=O)cc1` [Compound 1142], the MIC is > 16 µg/mL. For `CC(=O)NCCOc1cccc(-c2cc3cn(-c4ccc(CN)cc4)c(=O)nc3[nH]2)c1` [Compound 1143], the MIC was > 16 µg/mL. Turning to `NCCOc1cccc(-c2cc3cn(-c4ccc(CN)cc4)c(=O)nc3[nH]2)c1` [Compound 1144], the MIC was > 16 µg/mL. As to `O=c1nc2[nH]c(-c3ccc(S(=O)(=O)NC4CCNCC4)cc3)cc2cn1-c1cccc(OC2CCNC2)c1` (stereo not shown) [Compound 1148], the MIC is > 16 µg/mL. `NCC(O)Cn1cc2cc(-c3ccc(S(=O)(=O)NC4CCNCC4)cc3)[nH]c2nc1=O` (stereo not shown) [Compound 1149]: the MIC is > 16 µg/mL. `N=C(N)CCCOc1cccc(-c2cc3cn(-c4ccc(CN)cc4)c(=O)nc3[nH]2)c1` [Compound 1150]: the MIC is > 16 µg/mL.

For `N#CCCCOc1cccc(-c2cc3cn(-c4ccc(CN)cc4)c(=O)nc3[nH]2)c1` [Compound 1151], the MIC was > 16 µg/mL.
